Common to all, as to test: Protein kinase assay
For one test, the target named is CDK1/cyclin B. The class given is biochemical, starfish. Particulars: 15 μmol/L ATP.
In another test the target is CLK3 (Mus musculus, UniProt O35492). Particulars: IC50 CLK3, 15 μmol/L ATP.
Another test concerns the target CLK4 (Mus musculus, UniProt O35493). Particulars: IC50 CLK4, 15 μmol/L ATP.
The next test concerns the target CK1δ/ε. The class given is biochemical, porcine. The conditions noted are these: 15 μmol/L ATP. As to the method:
(§1) CK1δ/ε (porcine brain, native) and LmCK1 (leishmania major, recombinant, expressed in E. coli as HIS fusion proteins) was assayed as described for CDK1 but in buffer C and using 25 μM CKS peptide ([…]pSAYSITA), a CK1-specific substrate.

A further test concerns the target CLK1 (Mus musculus, UniProt P22518). The conditions noted are these: IC50 CLK1, 15 μmol/L ATP.
The target of a further test is T1, PfGSK-3 (Plasmodium falciparum, UniProt O77344).
T1 sequence (O77344 1-440): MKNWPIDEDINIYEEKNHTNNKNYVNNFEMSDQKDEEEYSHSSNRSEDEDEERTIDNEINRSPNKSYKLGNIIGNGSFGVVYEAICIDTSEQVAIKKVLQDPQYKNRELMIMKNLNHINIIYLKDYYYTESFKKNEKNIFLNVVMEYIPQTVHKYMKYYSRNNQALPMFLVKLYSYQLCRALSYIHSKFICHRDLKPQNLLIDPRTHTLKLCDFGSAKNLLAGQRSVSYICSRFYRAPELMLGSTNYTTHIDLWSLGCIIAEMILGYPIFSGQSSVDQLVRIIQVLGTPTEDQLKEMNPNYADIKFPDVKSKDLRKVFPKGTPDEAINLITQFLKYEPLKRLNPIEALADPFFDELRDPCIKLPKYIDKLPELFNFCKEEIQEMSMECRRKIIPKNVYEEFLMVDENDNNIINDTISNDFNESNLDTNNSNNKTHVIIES
The test is classed as biochemical. Particulars: 15 μmol/L ATP; read-out: IC50 PfGSK-3.

In another test the target is LdDYRK4 (Leishmania donovani, UniProt A0A3Q8IC55). The test is classed as biochemical. The conditions noted are these: 15 μmol/L ATP; read-out: IC50 LdDYRK4.
The target of another test is CpLAMMER (Cryptosporidium parvum, UniProt A3FQG5). The test is classed as biochemical. The conditions noted are these: 15 μmol/L ATP; read-out: IC50 CpLAMMER.
Sequence of CpLAMMER (A3FQG5 entry or part of it): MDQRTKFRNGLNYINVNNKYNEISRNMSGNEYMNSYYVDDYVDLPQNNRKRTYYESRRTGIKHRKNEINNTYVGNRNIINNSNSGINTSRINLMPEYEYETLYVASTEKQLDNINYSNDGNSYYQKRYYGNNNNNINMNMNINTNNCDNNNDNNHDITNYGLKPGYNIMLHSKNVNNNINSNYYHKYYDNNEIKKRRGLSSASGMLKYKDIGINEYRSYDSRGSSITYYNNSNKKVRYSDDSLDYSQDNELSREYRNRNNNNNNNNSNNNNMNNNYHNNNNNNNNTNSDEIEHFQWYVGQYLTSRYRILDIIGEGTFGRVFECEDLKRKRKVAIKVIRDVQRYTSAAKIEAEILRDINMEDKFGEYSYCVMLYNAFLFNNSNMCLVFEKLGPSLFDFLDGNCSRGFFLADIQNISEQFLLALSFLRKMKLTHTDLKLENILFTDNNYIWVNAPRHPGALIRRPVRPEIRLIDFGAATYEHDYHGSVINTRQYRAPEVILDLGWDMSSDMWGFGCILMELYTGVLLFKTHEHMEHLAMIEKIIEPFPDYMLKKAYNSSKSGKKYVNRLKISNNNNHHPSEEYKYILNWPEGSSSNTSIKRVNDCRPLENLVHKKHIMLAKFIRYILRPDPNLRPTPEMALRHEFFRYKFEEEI
The next test has as its target LmDYRK2 (Leishmania major, UniProt Q4Q405). The test is classed as biochemical. The conditions noted are these: 15 μmol/L ATP; read-out: IC50 LmDYRK2.
A further test deals with GlCLK (Giardia intestinalis, UniProt A8BBY0). The class given is biochemical. The conditions noted are these: 15 μmol/L ATP; read-out: IC50 GlCLK.
A further test addresses TbCLK1 (Trypanosoma brucei brucei, UniProt Q382U0). The test is classed as biochemical. The conditions noted are these: 15 μmol/L ATP; read-out: IC50 TbCLK1.
The target of another test is LdDYRK3 (Leishmania donovani, UniProt E9BS59). The test is classed as biochemical. Particulars: 15 μmol/L ATP; read-out: IC50 LdDYRK3.
Sequence of LdDYRK3 (E9BS59 entry or part of it): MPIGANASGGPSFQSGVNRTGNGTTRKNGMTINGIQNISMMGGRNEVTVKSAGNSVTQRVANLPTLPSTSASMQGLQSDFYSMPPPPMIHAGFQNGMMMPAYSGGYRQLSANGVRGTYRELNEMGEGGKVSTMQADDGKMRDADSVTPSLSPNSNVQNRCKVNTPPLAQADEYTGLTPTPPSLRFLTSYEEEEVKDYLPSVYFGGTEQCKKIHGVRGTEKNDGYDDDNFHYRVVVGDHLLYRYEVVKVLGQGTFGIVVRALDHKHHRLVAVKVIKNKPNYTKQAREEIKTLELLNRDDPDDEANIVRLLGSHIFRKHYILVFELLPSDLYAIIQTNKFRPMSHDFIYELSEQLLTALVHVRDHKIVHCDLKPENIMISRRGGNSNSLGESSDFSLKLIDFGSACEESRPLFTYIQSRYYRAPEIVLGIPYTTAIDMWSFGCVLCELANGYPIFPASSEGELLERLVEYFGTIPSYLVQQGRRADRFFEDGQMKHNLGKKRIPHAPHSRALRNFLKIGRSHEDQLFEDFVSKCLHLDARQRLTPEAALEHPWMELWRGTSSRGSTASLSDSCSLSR
Another test concerns the target TcCLK1 (Trypanosoma cruzi, UniProt Q4E3Z1). The test is classed as biochemical. Particulars: 15 μmol/L ATP; read-out: IC50 TcCLK1.
Another test deals with PfCLK1 (Plasmodium falciparum, UniProt Q8IL19). The class given is biochemical. Particulars: 15 μmol/L ATP; read-out: IC50 PfCLK1.
For another test, the target named is LmCLK (Leishmania major, UniProt Q4QHY4). The class given is biochemical. The conditions noted are these: 15 μmol/L ATP; read-out: IC50 LmCLK.
A further test has as its target LdDYRK1B (Leishmania donovani, UniProt E9BC59). The test is classed as biochemical. Particulars: 15 μmol/L ATP.
In another test the target is CLK2 (Mus musculus, UniProt O35491). Particulars: IC50 CLK2, 15 μmol/L ATP.
Sequence of CLK2 (O35491 whole entry): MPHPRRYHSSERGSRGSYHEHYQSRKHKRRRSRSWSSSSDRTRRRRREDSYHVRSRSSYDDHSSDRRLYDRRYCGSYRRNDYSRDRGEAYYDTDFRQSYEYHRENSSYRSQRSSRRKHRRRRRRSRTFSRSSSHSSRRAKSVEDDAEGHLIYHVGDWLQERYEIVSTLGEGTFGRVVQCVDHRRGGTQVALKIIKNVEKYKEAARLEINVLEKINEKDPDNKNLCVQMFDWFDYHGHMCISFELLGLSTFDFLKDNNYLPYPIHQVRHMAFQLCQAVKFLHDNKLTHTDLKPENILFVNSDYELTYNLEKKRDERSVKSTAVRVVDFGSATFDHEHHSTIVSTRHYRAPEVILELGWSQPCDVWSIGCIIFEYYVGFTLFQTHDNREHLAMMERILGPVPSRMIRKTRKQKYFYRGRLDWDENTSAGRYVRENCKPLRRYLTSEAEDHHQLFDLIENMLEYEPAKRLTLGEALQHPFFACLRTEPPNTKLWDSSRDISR
Another test addresses CDK9/cyclin T (Homo sapiens, UniProt P50750). The conditions noted are these: IC50 CDK9/cyclin T, 15 μmol/L ATP.
The target in a further test is GSK-3α/β. The class given is biochemical, porcine. Particulars: 15 μmol/L ATP.
The target in a further test is LmCK1 (Leishmania major, UniProt Q9NHE1). The class given is biochemical. The conditions noted are these: 15 μmol/L ATP; read-out: IC50 LmCK1. As to the method: as §1

Sequence of CLK4 (O35493 whole entry): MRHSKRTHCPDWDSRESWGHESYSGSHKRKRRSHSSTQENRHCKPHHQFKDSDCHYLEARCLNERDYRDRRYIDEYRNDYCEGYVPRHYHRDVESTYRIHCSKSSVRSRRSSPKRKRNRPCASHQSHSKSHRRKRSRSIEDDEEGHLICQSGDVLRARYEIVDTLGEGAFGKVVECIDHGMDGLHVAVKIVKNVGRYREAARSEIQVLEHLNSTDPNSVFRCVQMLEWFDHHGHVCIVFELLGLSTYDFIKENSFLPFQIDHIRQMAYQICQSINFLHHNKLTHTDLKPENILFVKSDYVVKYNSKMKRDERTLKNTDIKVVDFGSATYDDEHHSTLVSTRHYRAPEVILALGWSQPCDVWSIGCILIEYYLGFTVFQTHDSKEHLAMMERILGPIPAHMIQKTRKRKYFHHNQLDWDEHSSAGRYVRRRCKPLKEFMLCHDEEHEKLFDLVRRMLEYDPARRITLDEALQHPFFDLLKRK
Sequence of TcCLK1 (Q4E3Z1 entry or part of it): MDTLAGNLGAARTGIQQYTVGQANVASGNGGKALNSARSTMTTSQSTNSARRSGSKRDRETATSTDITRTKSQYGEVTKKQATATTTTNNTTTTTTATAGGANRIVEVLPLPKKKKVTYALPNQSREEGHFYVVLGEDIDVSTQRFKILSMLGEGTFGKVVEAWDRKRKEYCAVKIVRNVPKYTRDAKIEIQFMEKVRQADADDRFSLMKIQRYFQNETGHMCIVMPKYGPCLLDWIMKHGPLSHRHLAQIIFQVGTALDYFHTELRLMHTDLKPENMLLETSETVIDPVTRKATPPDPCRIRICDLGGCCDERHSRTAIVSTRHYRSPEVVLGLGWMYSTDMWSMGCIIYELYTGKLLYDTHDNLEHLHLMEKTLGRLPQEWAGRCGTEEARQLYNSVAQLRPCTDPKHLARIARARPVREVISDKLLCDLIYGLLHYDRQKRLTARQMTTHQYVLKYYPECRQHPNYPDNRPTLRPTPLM
Sequence of TbCLK1 (Q382U0 entry or part of it): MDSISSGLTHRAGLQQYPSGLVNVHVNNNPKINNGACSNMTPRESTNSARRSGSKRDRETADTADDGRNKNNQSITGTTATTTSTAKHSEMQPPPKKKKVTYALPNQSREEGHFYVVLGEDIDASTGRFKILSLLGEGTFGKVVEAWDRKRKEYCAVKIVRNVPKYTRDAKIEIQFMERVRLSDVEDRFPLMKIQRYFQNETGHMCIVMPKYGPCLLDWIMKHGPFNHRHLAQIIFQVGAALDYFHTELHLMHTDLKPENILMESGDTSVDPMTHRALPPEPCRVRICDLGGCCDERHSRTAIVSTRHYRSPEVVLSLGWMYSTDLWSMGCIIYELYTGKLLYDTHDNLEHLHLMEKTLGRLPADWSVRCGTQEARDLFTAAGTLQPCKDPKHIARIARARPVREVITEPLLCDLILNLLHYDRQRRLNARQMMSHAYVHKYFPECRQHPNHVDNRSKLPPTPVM
Sequence of CDK9/cyclin T (P50750 whole entry): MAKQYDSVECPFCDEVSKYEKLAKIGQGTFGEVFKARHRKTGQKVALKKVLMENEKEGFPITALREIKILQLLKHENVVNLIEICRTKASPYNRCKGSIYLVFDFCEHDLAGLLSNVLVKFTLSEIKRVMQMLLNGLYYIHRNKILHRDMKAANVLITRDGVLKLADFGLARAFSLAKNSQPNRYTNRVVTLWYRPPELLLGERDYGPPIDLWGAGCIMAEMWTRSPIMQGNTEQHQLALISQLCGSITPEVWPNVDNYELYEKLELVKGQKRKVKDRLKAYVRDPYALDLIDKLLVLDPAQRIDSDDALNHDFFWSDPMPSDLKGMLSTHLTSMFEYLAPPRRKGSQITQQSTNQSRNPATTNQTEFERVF
Sequence of CDK9/cyclin T (O60563 whole entry partner): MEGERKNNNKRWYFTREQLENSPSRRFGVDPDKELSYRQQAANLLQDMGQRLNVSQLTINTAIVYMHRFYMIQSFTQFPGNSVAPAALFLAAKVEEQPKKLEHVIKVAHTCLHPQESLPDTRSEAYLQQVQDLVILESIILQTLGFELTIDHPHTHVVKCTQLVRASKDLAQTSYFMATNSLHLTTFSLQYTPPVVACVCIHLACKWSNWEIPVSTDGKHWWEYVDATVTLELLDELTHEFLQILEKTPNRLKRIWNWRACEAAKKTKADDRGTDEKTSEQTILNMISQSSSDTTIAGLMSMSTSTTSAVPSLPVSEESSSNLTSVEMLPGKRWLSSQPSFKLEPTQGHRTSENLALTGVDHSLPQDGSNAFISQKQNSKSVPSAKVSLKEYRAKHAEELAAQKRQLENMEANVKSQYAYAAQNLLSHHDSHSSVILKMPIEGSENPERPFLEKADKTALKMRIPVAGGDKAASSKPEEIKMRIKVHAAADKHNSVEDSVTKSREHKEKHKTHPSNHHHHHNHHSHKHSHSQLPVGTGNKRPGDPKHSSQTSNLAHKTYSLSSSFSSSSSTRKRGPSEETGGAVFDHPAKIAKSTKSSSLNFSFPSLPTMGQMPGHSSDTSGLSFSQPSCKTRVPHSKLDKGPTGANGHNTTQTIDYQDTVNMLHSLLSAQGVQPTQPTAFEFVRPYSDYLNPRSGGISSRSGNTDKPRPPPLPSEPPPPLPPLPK
Sequence of CLK3 (O35492 whole entry): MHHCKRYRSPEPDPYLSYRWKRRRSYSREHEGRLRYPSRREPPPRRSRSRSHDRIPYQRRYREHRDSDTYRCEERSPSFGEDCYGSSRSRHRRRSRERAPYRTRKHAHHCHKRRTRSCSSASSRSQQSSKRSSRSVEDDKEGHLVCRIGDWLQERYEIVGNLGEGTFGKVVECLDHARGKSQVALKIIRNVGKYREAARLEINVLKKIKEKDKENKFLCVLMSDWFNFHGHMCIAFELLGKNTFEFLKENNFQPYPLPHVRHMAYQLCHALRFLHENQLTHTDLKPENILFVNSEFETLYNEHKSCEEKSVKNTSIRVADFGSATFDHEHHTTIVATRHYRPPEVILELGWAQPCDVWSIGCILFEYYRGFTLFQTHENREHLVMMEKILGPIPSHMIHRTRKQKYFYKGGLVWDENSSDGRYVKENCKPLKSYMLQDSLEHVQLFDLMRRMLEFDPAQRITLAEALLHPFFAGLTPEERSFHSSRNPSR

Broadly, the IC50 is the midpoint of a concentration-inhibition curve. In the case of `NC1=NC(=O)/C(=C2\CCNC(=O)c3[nH]cc(Br)c32)N1` [Spongiacidin B], the IC50 against CDK1/cyclin B came out at 31 nM; against CLK3, 49 nM; against CLK4 it was 3.6 nM; against CK1δ/ε, 31 nM; on CLK1, 22 nM; at PfGSK-3 it was 38 nM. For the same compound, the IC50 was more than 10000 nM at LdDYRK4; 130 nM at CpLAMMER; 9000 nM at LmDYRK2; 120 nM on GlCLK; 710 nM on TbCLK1; 300 nM at LdDYRK3. In addition, the IC50 is 1100 nM on TcCLK1; 85 nM at PfCLK1; 5200 nM at LmCLK; 500 nM against LdDYRK1B; 7.3 nM on CLK2; 200 nM on CDK9/cyclin T. The IC50 was 44 nM on GSK-3α/β and 25 nM on LmCK1.

These data come from article PMC5666424, “Marine-Derived 2-Aminoimidazolone Alkaloids. Leucettamine B-Related Polyandrocarpamines Inhibit Mammalian and Protozoan DYRK & CLK Kinases” (Marine Drugs, 2017).
